Patent publication US7196229B2, “Benzoylcyclohexenone derivatives” (BASF Aktiengesellschaft, priority 2001, dated 2007)

How the values were obtained:
[1] = test system: ECHCG; test: greenhouse post-emergence herbicidal test; assay type: in vivo, barnyard grass; details: application rates of 0.125 or 0.0625 kg/ha
Text: (§1) The seeds of the test plants were sown separately for each species. For the post-emergence treatment, the test plants were first grown to a height of from 3 to 15 cm, depending on the plant habit, and only then treated with the active compounds which had been suspended or emulsified in water. The test plants were for this purpose either sown directly and grown in the same containers, or they were first grown separately as seedlings and transplanted into the test containers a few days prior to treatment. The application rate for the post-emergence treatment was 0.125 and 0.0625 kg of a.s. (active substance)/ha. Depending on the species, the plants were kept at 10–25° C. or 20–35° C. The test period extended over 2 to 4 weeks. During this time, the plants were tended, and their response to the individual treatments was evaluated. The evaluation was carried out using a scale from 0 to 100. 100 means no emergence of the plants, or complete destruction of at least the aerial parts and 0 means no damage, or normal course of growth. The plants used in the greenhouse experiments were of the following species: [table]

[2] = test system: ABUTH; test: greenhouse post-emergence herbicidal test; assay type: in vivo, velvetleaf; details: application rates of 0.125 or 0.0625 kg/ha
Text: as §1

[3] = test system: CHEAL; test: greenhouse post-emergence herbicidal test; assay type: in vivo, lambsquarters; details: application rates of 0.125 or 0.0625 kg/ha
Text: as §1

[4] = test system: POLPE; test: greenhouse post-emergence herbicidal test; assay type: in vivo, ladys thumb; details: application rates of 0.125 or 0.0625 kg/ha
Text: as §1

[5] = test system: PHBPU; test: greenhouse post-emergence herbicidal test; assay type: in vivo, morning glory; details: application rates of 0.125 or 0.0625 kg/ha
Text: as §1

[6] = test system: SETFA; test: greenhouse post-emergence herbicidal test; assay type: in vivo, giant foxtail; details: application rates of 0.125 or 0.0625 kg/ha
Text: as §1

[7] = test system: AMARE; test: greenhouse post-emergence herbicidal test; assay type: in vivo, redroot pigweed; details: application rates of 0.125 or 0.0625 kg/ha
Text: as §1

Structure (SMILES) | herbicidal post-emergence activity against ECHCG [1] | melting point [°C] | herbicidal post-emergence activity against CHEAL [3] | further results
Cc1c(C(=O)C2=C(O)CCCC2=O)ccc(S(C)(=O)=O)c1S(C)(=O)=O [Compound 2.1, 2-[2-Methyl-3,4-di(methylsulfonyl)benzoyl]cyclohexane-1,3-dione] | very good | 301 to 302 | very good | herbicidal post-emergence activity against ABUTH [2]: very good; herbicidal post-emergence activity against POLPE [4]: very good
Cc1c(C(=O)C2=C(O)CC(C)CC2=O)ccc(S(C)(=O)=O)c1S(C)(=O)=O (centres unmarked) [Compound 2.3] | very good | 235 to 239 | very good | herbicidal post-emergence activity against PHBPU [5]: very good; herbicidal post-emergence activity against ABUTH [2]: very good
Cc1c(C(=O)C2=C(O)CCC(C)(C)C2=O)ccc(S(C)(=O)=O)c1S(C)(=O)=O [Compound 2.4] | very good |  | very good | herbicidal post-emergence activity against PHBPU [5]: very good; herbicidal post-emergence activity against SETFA [6]: very good
Cc1c(C(=O)C2=C(O)CC(C)(C)CC2=O)ccc(S(C)(=O)=O)c1S(C)(=O)=O [Compound 2.5] | very good |  | very good | herbicidal post-emergence activity against AMARE [7]: very good; herbicidal post-emergence activity against SETFA [6]: very good
Cc1c(C(=O)C2=C(O)CCCC2=O)ccc(Cl)c1S(C)(=O)=O [Compound 2.6] | very good | 137 to 140 |  | herbicidal post-emergence activity against ABUTH [2]: very good; herbicidal post-emergence activity against POLPE [4]: very good; herbicidal post-emergence activity against SETFA [6]: very good
COc1ccc(C(=O)C2=C(O)CCCC2=O)c(C)c1S(C)(=O)=O [Compound 2.7] |  | 121 to 129 |  | 
COc1ccc(C(=O)C2=C(O)CC(C)(C)CC2=O)c(C)c1S(C)(=O)=O [Compound 2.8] |  | 163 to 165 |  | 
COc1ccc(C(=O)C2=C(O)CC(C)CC2=O)c(C)c1S(C)(=O)=O (centres unmarked) [Compound 2.9] |  | 106 to 112 |  | 
Cc1c(C(=O)C2=C(O)CCCC2=O)ccc(OC(F)F)c1S(C)(=O)=O [Compound 2.10] |  | 64 to 69 |  | 
Cc1c(C(=O)C2=C(n3cccn3)CCCC2=O)ccc(S(C)(=O)=O)c1S(C)(=O)=O [Compound 3.1] |  | 275 to 277 |  | 
Cc1c(C(=O)C2=C(n3cccn3)CC(C)CC2=O)ccc(S(C)(=O)=O)c1S(C)(=O)=O (centres unmarked) [Compound 3.2] |  | 278 to 283 |  | 
